Data on 30 compounds can be found in patent publication US11440907B1 (Merck Patent GmbH, priority 2018, dated 2022).

For orientation: EC50 means the concentration at which the effect is half-maximal. As a reminder, the IC50 is the concentration needed to halve the response being measured.

What all share (format): cell-based
Test [1] concerns intracellular calcium flux in Colo-205 cells. The experiment in a line: Calcium flux assay (FLIPR Calcium 5 Assay Kit, FLIPR3). To be noted: Homo sapiens, 0.6 h, calcium flux measured over 36 minutes, read-out: Colo 205 Calcium Flux assay 384w Boston Ca assay FLIPR3 Colo EC50. The method, then:
Compounds described herein induced ER stress by causing intracellular calcium flux. Calcium flux was measured in Colo-205 cells using the FLIPR® Calcium 5 Assay Kit according to manufacturer's protocol (Molecular Devices, Cat. #R8186) on a FLIPR3 system (Molecular Devices). Calcium flux is measured over 36 minutes. The Colo-205 calcium flux assay data are summarized in Table 3: A<0.6 μM; 0.6 μM≤B<2.0 μM; 2.0 μM≤C<10.0 μM; D≥10.0 μM.
(In general: A change in cytosolic calcium serves as a functional read-out for many receptors and channels.)

The subject of test [2] is β-catenin-TCF-mediated reporter transcription activity in Colo 205 cells. The experiment in a line: Colo 205 reporter assay (TCF/LEF promoter-driven firefly luciferase). Particulars: Homo sapiens; Colo 205 TCF/LEF luciferase reporter, 5 hours after compound addition, 384 well; read-out: Colo205 IC50. Background: A reporter such as luciferase makes a cellular process visible.

For test [3], the system named is XBP1(u)-luciferase splicing reporter in HepG2 hepatoma cells. Briefly: HepG2 XBP1 reporter assay (XBP1(u)-Luc). To be noted: Homo sapiens, 6 hours after compound addition, Table 3, read-out: XBP1-luc HepG2 1 EC50.

Bounds are passed on as bounds.

As for `CC(C)c1cc(N2CCCCCC2c2ccccc2Cl)nc(N)n1` (racemic) [I-16, (+/−)-4-(2-(2-chlorophenyl)azepan-1-yl)-6-isopropylpyrimidin-2-amine], the figures for the EC50 in test [1] and in test [3] were 600 to 2000 nM and 2000 to 5000 nM, respectively. Also, in test [2], the IC50 was 300 to 1000 nM.

For the compound `CCc1cc(N2CCCCCC2c2ccccc2Cl)nc(N)n1` (racemic) [I-17, (+/−)-4-(2-(2-chlorophenyl)azepan-1-yl)-6-ethylpyrimidin-2-amine], the values for the EC50 in test [1] and in test [3] were 600 to 2000 nM and less than 600 nM, respectively. The IC50 in test [2] is 300 to 1000 nM.

On to `COc1ccc(C2CCCCCN2c2cc(C)nc(N)n2)c(OC)c1` (racemic) [I-51, (+/−)-4-[2-(2,4-dimethoxyphenyl)azepan-1-yl]-6-methyl-pyrimidin-2-amine], for which the 50% effective concentration (EC50) in test [1] and in test [3] was less than 600 nM throughout. In addition, the IC50 in test [2] was in the range of 300 to 1000 nM.

Take `CCNC(=O)c1ccc(C2COCCCN2c2cc(C)nc(N)n2)c(Cl)c1` (racemic) [I-171, (+/−)-4-[4-(2-amino-6-methyl-pyrimidin-4-yl)-1,4-oxazepan-3-yl]-3-chloro-N-ethyl-benzamide]: the figures for the EC50 in test [1] and in test [3] were less than 600 nM and 600 to 2000 nM, respectively. For the same compound, the half-inhibitory concentration (IC50) in test [2] is 1000 to 5000 nM.

For the compound `Cc1cc(N2CCCOCC2c2cc(C(=O)NC3CC3)ccc2Cl)nc(N)n1` (racemic) [I-172, (+/−)-3-(4-(2-amino-6-methylpyrimidin-4-yl)-1,4-oxazepan-3-yl)-4-chloro-N-cyclopropylbenzamide], the EC50 is less than 600 nM in test [1] and 2000 to 5000 nM in test [3]. In addition, the IC50 in test [2] fell in the range of 300 to 1000 nM.

In the case of `CCNC(=O)c1ccc(Cl)c(C2COCCCN2c2cc(C)nc(N)n2)c1` (racemic) [I-173, (+/−)-3-[4-(2-amino-6-methyl-pyrimidin-4-yl)-1,4-oxazepan-3-yl]-4-chloro-N-ethyl-benzamide], the EC50 in test [1] is less than 600 nM; in test [3], 600 to 2000 nM. For the same compound, the IC50 in test [2] lay within 300 to 1000 nM.

On to `CNc1ccc(Cl)c(C2COCCCN2c2cc(C)nc(N)n2)c1` (racemic) [I-175, (+/−)-4-[3-[2-chloro-5-(methylamino)phenyl]-1,4-oxazepan-4-yl]-6-methyl-pyrimidin-2-amine], for which the EC50 in test [1] and in test [3] was less than 600 nM in each case. In addition, the IC50 in test [2] is less than 300 nM.

For `Cc1cc(N2CCCOCC2c2cc(NC(=O)C3CCO3)ccc2Cl)nc(N)n1` (racemic) [I-184, (+/−)-N-[3-[4-(2-amino-6-methyl-pyrimidin-4-yl)-1,4-oxazepan-3-yl]-4-chloro-phenyl]oxetane-2-carboxamide], the EC50 in test [1] was less than 600 nM; in test [3] it was 2000 to 5000 nM. The IC50 in test [2] was 300 to 1000 nM.

Take `Cc1cc(N2CCCOCC2c2cc(NC(=O)CC3COC3)ccc2Cl)nc(N)n1` (racemic) [I-185, (+/−)-N-[3-[4-(2-amino-6-methyl-pyrimidin-4-yl)-1,4-oxazepan-3-yl]-4-chloro-phenyl]-2-(oxetan-3-yl)acetamide]: the concentration giving a half-maximal response (EC50) in test [1] was less than 600 nM; in test [3], 2000 to 5000 nM. In test [2], the IC50 is 300 to 1000 nM.

Turning to `Cc1cc(N2CCCOCC2c2ccc(N(C)C3COC3)cc2Cl)nc(N)n1` (racemic) [I-186, (+/−)-4-[3-[2-chloro-4-[methyl(oxetan-3-yl)amino]phenyl]-1,4-oxazepan-4-yl]-6-methyl-pyrimidin-2-amine], the EC50 in test [1] and in test [3] was less than 600 nM each time. Further, the IC50 in test [2] is less than 300 nM.

For the compound `Cc1cc(N2CCCOCC2c2cc3nccn3cc2Cl)nc(N)n1` (racemic) [I-191, 4-(3-(6-chloroimidazo[1,2-a]pyridin-7-yl)-1,4-oxazepan-4-yl)-6-methylpyrimidin-2-amine], the EC50 in test [1] is less than 600 nM; in test [3], 600 to 2000 nM. Further, in test [2], the IC50 was 300 to 1000 nM.

As for `COCC(=O)Nc1ccc(C2COCCCN2c2cc(C)nc(N)n2)c(Cl)c1` (racemic) [I-192, (+/−)-N-[4-[4-(2-amino-6-methyl-pyrimidin-4-yl)-1,4-oxazepan-3-yl]-3-chloro-phenyl]-2-methoxy-acetamide], the EC50 in test [1] and in test [3] was less than 600 nM in each case. Moreover, the IC50 in test [2] lay in the range of 300 to 1000 nM.

With `Cc1cc(N2CCCOCC2c2ccc(N3CCCS3(=O)=O)cc2Cl)nc(N)n1` (racemic) [I-193, (+/−)-4-[3-[2-chloro-4-(1,1-dioxo-1,2-thiazolidin-2-yl)phenyl]-1,4-oxazepan-4-yl]-6-methyl-pyrimidin-2-amine], the EC50 in test [1] and in test [3] was less than 600 nM each time. In addition, the IC50 in test [2] was less than 300 nM.

On to `Cc1cc(N2CCCOCC2c2cc(N3CCCC3)ccc2Cl)nc(N)n1` (racemic) [I-199, (+/−)-4-[3-(2-chloro-5-pyrrolidin-1-yl-phenyl)-1,4-oxazepan-4-yl]-6-methyl-pyrimidin-2-amine], for which the EC50 in test [1] is less than 600 nM; in test [3] it was 600 to 2000 nM. Moreover, the IC50 in test [2] is 300 to 1000 nM.

For the compound `Cc1cc(N2CCCOCC2c2ccc(P(C)(C)=O)cc2Cl)nc(N)n1` (racemic) [I-202, (+/−)-4-[3-(2-chloro-4-dimethylphosphoryl-phenyl)-1,4-oxazepan-4-yl]-6-methyl-pyrimidin-2-amine], the values for the concentration for a half-maximal effect (EC50) in test [1] and in test [3] were 600 to 2000 nM and no less than 5000 nM, respectively. Besides, the IC50 in test [2] is 300 to 1000 nM.

As to `COCc1ccc(C2COCCCN2c2cc(C)nc(N)n2)c(Cl)c1` (racemic) [I-205, (+/−)-4-[3-[2-chloro-4-(methoxymethyl)phenyl]-1,4-oxazepan-4-yl]-6-methyl-pyrimidin-2-amine], the EC50 in test [1] and in test [3] was less than 600 nM throughout. Besides, the IC50 in test [2] lay in the range of 300 to 1000 nM.

In the case of `Cc1cc(N2CCCOCC2c2ccc(CS(C)(=O)=O)cc2Cl)nc(N)n1` (racemic) [I-208, (+/−)-4-(3-(2-chloro-4-((methylsulfonyl)methyl)phenyl)-1,4-oxazepan-4-yl)-6-methylpyrimidin-2-amine], the EC50 in test [1] and in test [3] was less than 600 nM throughout. Besides, in test [2], the IC50 was less than 300 nM.

As for `Cc1cc(N2CCCOCC2c2cc(N3CCOCC3)ccc2Cl)nc(N)n1` (racemic) [I-226, (+/−)-4-(3-(2-chloro-5-morpholinophenyl)-1,4-oxazepan-4-yl)-6-methylpyrimidin-2-amine], the EC50 in test [1] and in test [3] was less than 600 nM throughout. Further, the IC50 in test [2] was in the range of 300 to 1000 nM.

For `COc1ccc(OC)c([C@H]2CCCCCN2c2cc(C)nc(N)n2)c1` (single isomer, unassigned) [I-40], the EC50 in test [1] and in test [3] was less than 600 nM in each case. In test [2], the IC50 was less than 300 nM.

For `Cc1cc(N2CCCOC[C@@H]2c2ccc(S(C)(=O)=O)cc2Cl)nc(N)n1` (single isomer, unassigned) [I-68], the EC50 in test [1] and in test [3] was less than 600 nM throughout. In test [2], the IC50 fell in the range of 300 to 1000 nM.

Turning to `CC(=O)Nc1ccc([C@H]2COCCCN2c2cc(C)nc(N)n2)c(Cl)c1` (single isomer, unassigned) [I-162], the EC50 in test [1] and in test [3] was less than 600 nM throughout. The IC50 in test [2] was less than 300 nM.

On to `Cc1cc(N2CCCOC[C@H]2c2cc(NC(=O)C(F)(F)F)ccc2Cl)nc(N)n1` (single isomer, unassigned) [I-176], for which the EC50 was less than 600 nM in test [1] and 600 to 2000 nM in test [3]. In addition, the IC50 in test [2] lay in the range of 300 to 1000 nM.

On to `Cc1cc(N2CCCOCC2c2cc(NC(=O)C(F)(F)F)ccc2Cl)nc(N)n1` (single isomer, unassigned) [I-177, N-(3-(4-(2-amino-6-methylpyrimidin-4-yl)-1,4-oxazepan-3-yl)-4-chlorophenyl)-2,2,2-trifluoroacetamide], for which the concentration giving a half-maximal response (EC50) in test [1] and in test [3] was less than 600 nM throughout. The IC50 in test [2] is less than 300 nM.

With `CNc1ccc(Cl)c([C@H]2COCCCN2c2cc(C)nc(N)n2)c1` (single isomer, unassigned) [I-178, 4-[3-[2-chloro-5-(methylamino)phenyl]-1,4-oxazepan-4-yl]-6-methyl-pyrimidin-2-amine], the EC50 in test [1] and in test [3] was less than 600 nM each time. In test [2], the IC50 was less than 300 nM.

Turning to `Cc1cc(N2CCCOC[C@H]2c2ccc(NS(C)(=O)=O)cc2Cl)nc(N)n1` (single isomer, unassigned) [I-179, N-[4-[4-(2-amino-6-methyl-pyrimidin-4-yl)-1,4-oxazepan-3-yl]-3-chloro-phenyl]methanesulfonamide], the EC50 in test [1] and in test [3] was less than 600 nM each time. Besides, in test [2], the IC50 was less than 300 nM.

With `Cc1cc(N2CCCOC[C@@H]2c2ccc(N(C)C3COC3)cc2Cl)nc(N)n1` (single isomer, unassigned) [I-190], the EC50 in test [1] and in test [3] was less than 600 nM each time. Also, the IC50 in test [2] was less than 300 nM.

Consider `Cc1cc(N2CCCOC[C@@H]2c2ccc(NC(=O)C3(O)CC3)cc2Cl)nc(N)n1` (single isomer, unassigned) [I-197], for which the EC50 in test [1] and in test [3] was less than 600 nM throughout. Also, the 50% inhibitory concentration (IC50) in test [2] is 300 to 1000 nM.

As to `CCC(=O)Nc1ccc([C@H]2COCCCN2c2cc(C)nc(N)n2)c(Cl)c1` (single isomer, unassigned) [I-204], the EC50 in test [1] and in test [3] was less than 600 nM throughout. Besides, the IC50 in test [2] was less than 300 nM.

`CNC(=O)c1ccc(F)c(C2CCCCCN2c2cc(C)nc(N)n2)c1` (stereo not shown) [I-55, 3-(1-(2-amino-6-methylpyrimidin-4-yl)azepan-2-yl)-4-fluoro-N-methylbenzamide]: in test [1], the EC50 is less than 600 nM. Moreover, in test [2], the IC50 was in the range of 300 to 1000 nM.

Turning to `COC(=O)c1ccc(OC)c(C2COCCCN2c2cc(C)nc(N)n2)c1` (stereo not shown) [I-289], in test [1], the EC50 is less than 600 nM. The IC50 in test [2] lay within 300 to 1000 nM.
